Data from patent publication US6667414B2, “Use of propargyl glycine amino propargyl diol compounds for treatment of congestive heart failure” (Pharmacia Corporation, priority 1991, dated 2003).
Where a SMILES comes first, the peptide text is derived from it. [ ]: non-standard residue; d: D form. The star is where a group is joined. Sta = CC(C)C[C@H](N)[C@@H](O)CC(=O)O; Isovaleryl = CC(C)CC(=O)*

Columns and labels:
[1] = target: T1, human renin (Homo sapiens, UniProt P00797); test: Human renin inhibition in vitro; type: biochemical; settings: conversion of angiotensinogen to angiotensin I, 2 h at 37° C., pH 7.4
T1 construct: purchased National Institute for Biological Standards, London
T1 sequence (P00797 67-406): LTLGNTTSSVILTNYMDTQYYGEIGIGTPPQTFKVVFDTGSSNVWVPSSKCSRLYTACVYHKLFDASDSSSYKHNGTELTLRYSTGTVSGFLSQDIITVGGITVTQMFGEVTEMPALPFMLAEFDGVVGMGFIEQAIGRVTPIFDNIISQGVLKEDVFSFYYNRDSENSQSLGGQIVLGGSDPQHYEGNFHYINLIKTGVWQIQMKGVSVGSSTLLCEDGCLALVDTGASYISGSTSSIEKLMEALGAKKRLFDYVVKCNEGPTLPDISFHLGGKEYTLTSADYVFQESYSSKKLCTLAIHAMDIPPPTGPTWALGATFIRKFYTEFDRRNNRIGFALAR
Description: Compounds of Formula I were evaluated as inhibitors of human renin in an in vitro assay, as follows: This human renin inhibition test has been previously described in detail [Papaioannou et al., Clinical and Experimental Hypertension, A7(9), 1243-1257 (1985)-]. Human renin was obtained from the National Institute for Biological Standards, London. An incubation mixture was prepared containing the following components: in a total volume of 0.25 mL: 100 mM Tris-acetate buffer at pH 7.4, 25×10^−6 Goldblatt units of renin, 0.05 mL of plasma from human volunteers taking oral contraceptives, 6.0 mM Na-EDTA, 2.4 mM phenylmethyl sulfonyl fluoride, 1.5 mM 8-hydroxyquinoline, 0.4 mg/mL bovine serum albumin (BSA), and 0.024 mg/mL neomycin sulfate. This mixture was incubated for two hours at 37° C. in the presence or absence of renin inhibitors. The produced angiotensin I was determined by radioimmunoassay (New England Nuclear kit). Test compounds to be assayed were dissolved in DMSO and diluted with 100 mM Tris-acetate buffer at pH 7.4 containing 0.5% BSA to the appropriate concentration. The final concentration of organic solvent in the reaction mixture was less than 1%. Control incubations at 37° C. were used to correct for effects of organic solvent on renin activity.

[2] = system: hog renin; settings: after the injection of hog renin into nephrectomized rats; cited from earlier work

Compound	IC50 [1] [nM]	blood pressure in vivo [2]
C#CC[C@H](NC(=O)[C@@H](CC(=O)N(C)CCN(C)C)Cc1ccccc1)C(=O)N[C@@H](CC1CCCCC1)[C@@H](O)[C@@H](O)CC#C (relative stereo) [Example 1, N1-[1R*-[[[1S,1R*-(cyclohexylmethyl)-2S*,3R*-dihydroxyhexynyl]amino]carbonyl]-3-butynyl]-N-4-[2-(dimethylamino)ethyl]-N-4-methyl-2S*-(phenylmethyl)Butanediamide]	34	
CC(C)CC(=O)N[C@H](C(=O)N[C@H](C(=O)N[C@@H](CC(C)C)[C@@H](O)CC(=O)N[C@@H](C)C(=O)N[C@@H](CC(C)C)[C@@H](O)CC(=O)O)C(C)C)C(C)C [pepstatin] (Isovaleryl-VV[Sta]A[Sta]-OH)		reduce blood pressure
